From paper PMC8457056, “Remodeling of the Fibrillation Pathway of α‐Synuclein by Interaction with Antimicrobial Peptide LL‐III” (Chemistry (Weinheim an Der Bergstrasse, Germany), 2021)

What was measured:
α‐Syn = experiment: fraction of complexed α-Syn calculated from Kb; format: binding, human; details: 100 μM α-Syn, calculated from K b
Method: From the magnitude of K b, the fraction of complexed α‐Syn in the microscopy experiments could be calculated (Figure S5). For 100 μM α‐Syn, the fraction of complexed α‐Syn, θ, in the presence of 50 μM LL‐III amounts to about 0.3. […] This is likely due to the ability of the peptide to interact with one or two α‐Syn molecules within the droplets. The interaction is expected to occur mainly via the interaction of the positively charged (+6) and hydrophobic groups of LL‐III with the negatively charged C‐terminus (−12) and hydrophobic NAC region of α‐Syn, respectively. […] In the presence of 200 μM and 500 μM LL‐III, the θ‐values are 0.70 and 0.90, respectively.
Figure S4. Binding isotherm obtained by means of Trp steady-state fluorescence anisotropy. The experiment was performed by titrating a 5 µM solution of LL-III with a solution of α-Syn in the range 0-50 µM. The red line represents the best fit according to a 1:1 binding model. The experiments were performed in 20 mM sodium acetate buffer, pH 5.0, at 25 °C.
Figure S5. Plot of the fraction of bound α -Syn as a function of the total peptide concentration. The fraction of bound α -Syn was calculated according to the concentration used in the phase- contrast light microscopy experiments reported in Figu re 1 B of the main text: 100 µ M α-Syn and 50 µM (grey circle), 200 µM (red circle) and 500 µ M (blue circle) of LL-III. […]

[1] = test system: neuronal SH‐SY5Y cells stably expressing an α‐Syn‐GFP fusion protein; experiment: PFF-induced α-Syn-GFP aggregation in SH-SY5Y cells (structured-illumination microscopy); format: cell-based; details: 1 μM LL-III 1 h before PFF; for cells with α‐Syn‐GFP aggregates: 5 independent experiments, at least 150 cells per condition
Method: Finally, to test the anti‐aggregation activity of LL‐III in a cellular model, we used the α‐Syn pre‐formed fibril (PFF) model, which involves conversion of recombinant monomeric α‐Syn protein into fibrillar seeds that were added to neuronal SH‐SY5Y cells stably expressing an α‐Syn‐GFP fusion protein.[32, 33] In brief, untreated cells expressed soluble α‐Syn‐GFP that was rather homogenously distributed throughout the cells (Figure 3, left panel). Treatment of cells with PFF seeds caused aggregation of α‐Syn‐GFP, reflected by the formation of GFP‐positive foci (Figure 3, middle and right panel). These α‐Syn‐GFP aggregates could be visualized already 24 h after PFF treatment by fluorescence super‐resolution structured illumination microscopy.
Figure 3 LL‐III decreases PFF‐induced α‐Syn aggregation in neuronal cells. SH‐SY5Y cells stably expressing α‐Syn‐GFP were pre‐treated without or with LL‐III 1 h before adding PFF seeds to induce α‐Syn aggregation. A. α‐Syn was visualized by structured‐illumination microscopy 24 h and 48 h after PFF treatment. Green: α‐Syn (GFP), blue: nuclei (DAPI). B. Quantification of cells with α‐Syn aggregates was based on 5 independent experiments. In total, at least 150 cells were counted per condition. Data were processed by a Kolmogorov‐Smirnov test for Gaussian distribution followed by an unpaired two‐tailed Student's t‐test. *** p≤0.001.
LL‐III was pre‐incubated with α‐Syn‐GFP‐expressing SH‐SY5Y cells at a concentration of 1 μM one hour before PFF treatment to allow cellular uptake of LL‐III. The number of cells with α‐Syn‐GFP aggregates was quantified 24 h and 48 h after PFF seeding. […]
µM) and following the anisotropy changes of the Trp residue. […] The anisotropy was evaluated at 354 nm which corresponds to the maximum of emission of the free peptide. […]
Far-UV circular dichroism (CD) spectra were recorded by using a Jasco J- 715 spectropolarimeter from Jasco Cor-poration (Tokyo, Japan). […] A blank spectrum of 20 mM sodium acetate buffer, pH 5.0, was recorded and subtracted from all the samples spectra. […]

NH2-VNWKKIL GKIIKVVK -CONH2 [LL‐III]
fraction of complexed α‐Syn, θ (α‐Syn; 50 μM LL-III): about 0.3 | fraction of complexed α‐Syn, θ (α‐Syn; 200 μM LL-III): 0.70 | fraction of complexed α‐Syn, θ (α‐Syn; 500 μM LL-III): 0.90 | cells with α‐Syn‐GFP aggregates ([1]; 24 h after PFF seeding, without LL-III 48 %): 30% | change in number of cells with aggregates ([1]; 24 h and 48 h): significantly decreased | cells with α‐Syn‐GFP aggregates ([1]; 48 h after PFF seeding, without LL-III 54 %): 36%
